Data as given in patent US12544350B2, “Combinatorial antitumor treatment methods and related compositions, kits, and systems” (Klotho Therapeutics, Inc., priority 2021, dated 2026).

Key:
[1] = system: cisplatin-induced acute kidney injury (CI-AKI) mouse model; assay: Cisplatin-induced acute kidney injury (CI-AKI) mouse model, Compound 22 (Example 9); assay type: in vivo, female C57BL/6J mice; conditions: for gradual recovery of mean body weight, onset: cisplatin 11 mg/kg IP day 0
Description: The aim of the study was to investigate the efficacy of test compound(s) in a (mouse) model for acute kidney injury. Specifically, the study investigated the efficacy of test compound(s) in cisplatin-induced acute kidney injury (CI-AKI) mouse model. For example, the effect of daily repeated intraperitoneal (IP) administration of Compound 22 at doses of 50 mg/kg for 7 consecutive days in four different treatment regimens on development of pathology in mice in CI-AKI model was evaluated. Serum analysis for urea (BUN) was performed on the 5th day and 12th days after cisplatin administration. The mean body weight loss per group was calculated every day of the study as percentage loss of initial (day 0) weight for each individual animal.
Study design, animal selection, handling and treatment were all in accordance with the CRO's study protocols and Institutional Animal Care and Use Guidelines. Animal treatment and serum samples preparation were conducted by the Animal Laboratory personnel at the CRO. 100 female C57BL/6J mice 11-14 weeks old were randomized by body weight and divided into five groups, 20 animals each. Body weights ranged from 16.9 to 22.5 g with an average body weight across all groups 19.54 g (SD=1.04; CV=5.3%). Each mouse was treated with a single dose via IP route of administration with cisplatin at the dose of 11 mg/kg on the day 0 of the study. The mice in Group 2 and 4 were repeatedly treated with Compound 22 at the dose of 50 mg/kg with an interval of 24 h for seven consecutive days starting from Day 2 or Day 0 of the study, respectively. […]
To induce acute kidney injury, cisplatin was administered without dilution as a factory-made 1 mg/ml solution for infusion at the injection volume of 11 ml/kg for the dose of 11 mg/kg. […] Urea (BUN) was determined in the serum using a commercial kit according to the manufacturer's instructions. […] The rate of absorbance change at λ=340 nm is proportional to the urea concentration. […]

[2] = system: cisplatin-induced acute kidney injury (AKI) in male Sprague Dawley rats; assay: Cisplatin-induced acute kidney injury (AKI) in rats, 90 minutes infusion (Example 12); assay type: in vivo; conditions: for body weight change over baseline (BWC): day 0-6, after post-treatment period, cisplatin 5 mg/kg IP
Description: The goal of this study was to assess the effect of compound 22 at the doses of 50 mg/kg and 25 mg/kg on the development of cisplatin-induced acute kidney injury (AKI) in male Sprague Dawley rats. Compound 22 was administrated repeatedly seven consecutive days by 90 minutes infusion into a jugular vein using automatic pumps. Treatment was initiated simultaneously with the single intraperitoneal (IP) administration of cisplatin at the dose of 5 mg/kg. The experimental animal's mortality was recorded daily. […] Serum analysis for Creatinine and Urea were performed on day −4th (blank), 1st, 3rd, 6th, 9th, and 12th (terminal) day of the study.
Rat's jugular vein catheterization. Rat's jugular vein catheterization procedure was performed on −3rd day of the study. All experimental animals were anesthetized prior to surgical intervention by Telazol at the dose of 40 mg/kg body weight and Xylazine at the dose of 8 mg/kg body weight. The anesthetized rat was placed onto a heated surgical platform. The surgical area was shaved and gently scrubbed with a drop of iodine in 96% ethanol solution. The skin incision (2 cm) was made on the right of the midline of the neck at the level of the clavicle using a scalpel. Dissected jugular vein, separated from the salivary and lymphatic tissues, was visualized and isolated approximately 5 mm section of the vessel. The cranial end of the vessel was tied using 4-0 silk ligatures. By micro surgical scissors an incision was made to pass the catheter into the vein approximately 20 mm towards the heart. The caudal end of the jugular vein was tied to catheter's collar with silk ligatures aimed to secure the place of catheter. The free end of catheter was tunneled subcutaneously and connected to a transcutaneous button that features an external port with a cap at the nape of the animal's neck. […] To prevent dehydration after the surgery animals were injected with 2 ml physiological saline intraperitoneal. To prevent catheter occlusion and ensure its functioning flushing 0.10-0.20 ml amount of physiological saline with anticoagulant (Heparin, 500 IU/ml) was applied. First time catheter flushing was performed immediately after catheter was properly positioned in the jugular vein and fixed there. The procedure was repeated prior to infusion start. When a catheter was not in use, it was locked. The infusion was started three days after the catheter placement.
Fluid infusion. Programmable automatic syringe pumps system allowed for a fluid infusion of delivering determined volume at the selected infusion time. After the catheter flushing animals were connected to the tether and the swivel setup permitted free movement of the animal during the infusion. The duration of infusion was 90 minutes. The volume of infusion was 10 ml/kg; infusion rate was determined automatically according to time of infusion and volume of the administrated formulation. The infusions were performed from 10 am to […] in a random order.
Drug formulation. Route and volume of administration. Cisplatin was administered without dilution as a factory-made 1 mg/ml solution for infusion at the injection volumes of 5 ml/kg which corresponded to the doses of 5 mg/kg. IP route was used for cisplatin administration in the study. Compound 22 was formulated in sterile conditions in physiological saline at the concentrations 5 mg/ml for the dose level 50 mg/kg and 2.5 mg/ml for the dose level 25 mg/kg and was administrated as true solution. All formulations were sterilized by filtration via Minisart RC 0.2 μm sterile syringe filter. Compound 22 infusion duration was 90 minutes. The administrated volume for all group was 10 ml/kg of the body weight.
Frequency and duration of the application. cisplatin was administered once on day 0 of the study, 30 min before first infusion. Compound 22 as well as vehicle was administrated 7 consecutive days (day 0-day 6) once per day.
Duration of the experimental period. […]

[3] = system: cisplatin induced acute kidney injury (CI-AKI) in mice; assay: Cisplatin-induced acute kidney injury (CI-AKI) in mice, Compound 3 (Example 11); assay type: in vivo, female C57BL/6J mice
Description: The aim of the study was to investigate the efficacy of test compounds in the model of cisplatin induced acute kidney injury (CI-AKI) in mice. […] Serum analysis for urea (BUN) was performed on the 5th day and 9th days after cisplatin administration. The mean body weight loss per group was calculated every day of the study as percentage loss of initial (day 0) weight for each individual animal.
Study design, animal selection, handling and treatment were all in accordance with the CRO's study protocols and Institutional Animal Care and Use Guidelines. Animal treatment and serum samples preparation were conducted by the Animal Laboratory personnel at the CRO. 60 female C57BL/6J mice 9-12 weeks old were randomized by body weight and divided into 2 groups, 30 animals each. Body weights ranged from 13.9 to 22.0 g with an average body weight across all groups 17.75 g (SD=1.30; CV=7.3%). Each mouse was treated with a single dose via IP route of administration with cisplatin at the dose of 11 mg/kg on the day 0 of the study. […] The mice in Group 1 remained untreated after the cisplatin injection until the terminal sacrifice.
Cisplatin was administered without dilution as a factory-made 1 mg/ml solution for infusion at the injection volume of 11 ml/kg for the dose of 11 mg/kg. […] Only freshly prepared formulation was used for each dosing; each working formulation batch was prepared immediately prior to the administration. The working formulations were sterile filtered using 0.2 μm cellulose acetate syringe filters before injections. The dosing volume for the test compound was 5 ml/kg of body weight. The working formulations were administered as transparent clear solutions. Intraperitoneal (IP) route of administration was used in the study. Urea (BUN) was determined in the serum using a commercial kit according to the manufacturer's instructions. […] The rate of absorbance change at λ=340 nm is proportional to the urea concentration. […] Creatinine was measured using Modified Jaffe's method, without deproteinization. […]

LLC animals = assay: Cancer treatment: survival and anti-tumor efficacy in LLC animals (Example 13); assay type: in vivo; conditions: day 15; Compound 22 (50 mg/kg), cisplatin (10 mg/kg)
Source text: Compositions, system, and/or kits of the present disclosure can be effective at treating cancer and/or tumors. For example, a treatment protocol comprising illustrative compound 22 and cisplatin, co-administered is effective as an anti-tumor treatment, in addition to compound 22 preventing/attenuating kidney damage (caused by the chemotherapeutic nephrotoxin), restoring kidney function, and/or increasing patient survival during chemotherapy. FIG. 19 illustrates the survival efficacy of Compound 22 (50 mg/kg), cisplatin (10 mg/kg), and the combination of Compound 22+cisplatin in LLC animals. The co-administration of compound 22 (an illustrative PTBA prodrug) increased the probability of survival in LLC animals at day 15 from ˜75% (cisplatin alone) to ˜95% (Compound 22+cisplatin co-administration). FIG. 20 illustrates the anti-tumor efficacy of Compound 22, cisplatin, and the combination of Compound 22+cisplatin in LLC animals. cisplatin was administered to LLC animals at day 5 and day 14 of a 21 day study. Compound 22 was co-administered (once daily) 48 hours after each dose of cisplatin, and for 6 additional, consecutive days thereafter.

[4] = 50 mg/kg IP, 5th day after the cisplatin injection

## C[N+](C)(C)CCOC(=O)CCCSc1ccccc1.Cl [Compound 22, N,N,N-trimethyl-2-{[4-(phenylsulfanyl)butanoyl]oxy}ethan-1-aminium chloride]
[1]; G2-G3: 50 mg/kg IP once or twice a day, days 2-8
  gradual recovery of mean body weight, onset: beginning from the fifth day of the study
[1]; G2-G5, 50 mg/kg IP, 5th day after the cisplatin injection
  mean level of urea in serum compared to G1: significantly less
[1]; G4-G5: 50 mg/kg IP once or twice a day, days 0-6
  gradual recovery of mean body weight, onset: beginning from the seventh day of the study
[2]; 25 mg/kg
  body weight change, comparison with the cisplatin, vehicle group: No statistical significance
  histopathology scores compared to Vehicle-treated animals with cisplatin injection: no significant difference
[2]; 25 mg/kg infusion once per day
  body weight change over baseline (BWC): −17.6%
[2]; 25 mg/kg, H&E, terminal day
  kidney histopathology: cast deposition: medium
  kidney histopathology: connective tissue accumulation: mild
  kidney histopathology: glomerulonephritis: mild
  kidney histopathology: hemorrhages: occasional
  kidney histopathology: interstitial nephritis: medium/severe
  kidney histopathology: loss of brush border: severe
  kidney histopathology: loss of tubules: mild
  kidney histopathology: necrotic loci: medium-frequent
  kidney histopathology: tubular atrophy: mild
  kidney histopathology: tubular dilation: medium
  kidney histopathology: tubular epithelium flattening: medium/severe
  kidney histopathology: tubular epithelium loss: medium
  kidney histopathology: tubular hyperplasia: occasional
[2]; 25 mg/kg, day 6
  serum Creatinine values compared to the cisplatin, vehicle-treated group: significant decrease
  serum Urea values compared to the cisplatin, vehicle group: significant decrease
[2]; 50 mg/kg
  body weight change, comparison with the cisplatin, vehicle group: No statistical significance
  histopathology scores compared to Vehicle-treated animals with cisplatin injection: no significant difference
[2]; 50 mg/kg and 25 mg/kg, end of the study period, compared to cisplatin treatment
  severity of weight loss in individual animals (frequency distribution analysis): decreases the severity of weight loss
[2]; 50 mg/kg infusion once per day, survived animals
  body weight change over baseline (BWC): −3.9%
[2]; 50 mg/kg, H&E, terminal day
  kidney histopathology: cast deposition: mild
  kidney histopathology: connective tissue accumulation: mild
  kidney histopathology: interstitial nephritis: mild/medium
  kidney histopathology: loss of brush border: severe
  kidney histopathology: loss of tubules: occasional
  kidney histopathology: necrotic loci: occasional
  kidney histopathology: tubular atrophy: medium/mild
  kidney histopathology: tubular basophilia: occasional
  kidney histopathology: tubular dilation: medium
  kidney histopathology: tubular epithelium flattening: medium
  kidney histopathology: tubular epithelium loss: medium
  kidney histopathology: tubular epithelium vacuolation: occasional
  kidney histopathology: tubular hyperplasia: occasional
[2]; 50 mg/kg, day 6
  serum Creatinine values compared to the cisplatin, vehicle-treated group: significant decrease
[2]; 50 mg/kg, day 9
  serum Creatinine values compared to the cisplatin, vehicle-treated group: significant decrease
  serum Urea values compared to the cisplatin, vehicle group: significant decrease
[2]; both tested doses (50 mg/kg and 25 mg/kg)
  cisplatin-induced AKI development (serum Creatinine and Urea levels during infusions and post-infusion period): prevented cisplatin-induced AKI development

## CN(C)CCOC(=O)CCCSc1ccccc1 [Compound 3, 2-(dimcthylamino)ethyl 4-(phenylsulfanyl)butanoate]
[3]; [4]
  mean level of creatinine in serum compared to G1: significantly less
  mean level of urea in serum compared to G1: significantly less
[3]; G2: 50 mg/kg IP every 24 h for seven days from Day 2, cisplatin 11 mg/kg IP day 0
  gradual recovery of mean body weight, onset: beginning from the sixth day of the study

## N.N.[Cl][Pt][Cl] [cisplatin]
LLC animals
  probability of survival in LLC animals: ~75%
